Test results reported in PubChem BioAssay (NCI).
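Five compound concentrations were applied to cells in 96-well plates for 48 hours; endpoints were derived by simple linear interpolation of the resulting dose-response curve. TGI is the concentration that stops growth completely.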

Key:
Assay in all cases: NCI anticancer screen, dose series, 48 h
[1] = system: SN12C renal
[2] = system: SR leukemia
[3] = system: TK-10 renal
[4] = system: EKVX NSCLC
[5] = system: A549 NSCLC
[6] = system: HL-60(TB) leukemia
[7] = system: HOP-92 NSCLC
[8] = system: NCI-H226 lung
[9] = system: SK-MEL-2 melanoma
[10] = system: DU-145 prostate
[11] = system: HCC-2998 colon
[12] = system: A498 renal

Structure (SMILES)	TGI [1]	TGI [2]	TGI [3]	TGI [4]	TGI [5]	TGI [6]	TGI [7]	TGI [8]	TGI [9]	TGI [10]	TGI [11]	TGI [12]
Nc1nc(Cl)cc(NCC2(CO)CC(CCc3ccccc3)C2)n1 (stereo not given)	> 100 µM	> 88.8 µM	> 100 µM	> 100 µM	> 100 µM	> 94.2 µM	> 100 µM	> 100 µM	> 100 µM	> 100 µM	> 100 µM	> 100 µM
COC(=O)C1(Cc2ccccc2)Cc2cc3c(cc2C1=O)CCC3 (stereo not given)	> 100 µM	47.2 µM	> 100 µM	86.1 µM	> 100 µM	36.7 µM	42.3 µM	92.6 µM	53.1 µM	> 100 µM	9.64 µM	82 µM
CC(=O)C(CN1CCCCC1)C(c1ccccc1)c1c(O)c2ccccc2oc1=O (stereo not given)	> 100 µM	> 100 µM	> 100 µM	> 100 µM	> 100 µM	> 100 µM	> 100 µM	> 100 µM	> 100 µM	> 100 µM	> 100 µM	> 100 µM
Nc1nc2ncc(SCc3ccc(C(=O)NC(CCC(=O)O)C(=O)O)cc3)cc2c(=O)[nH]1 (stereo not given)	> 100 µM	> 100 µM	> 100 µM	> 100 µM	> 100 µM	> 100 µM	> 100 µM	> 100 µM	> 100 µM	> 100 µM	> 100 µM	> 100 µM
CC(C)=CCN1CC(C)C(=O)Nc2cc(Cl)ccc21 (stereo not given)	33 µM	> 100 µM	63.8 µM	94.8 µM	> 100 µM	> 100 µM	29 µM	40.6 µM	31.1 µM	> 100 µM	97.6 µM	> 100 µM
Cc1c(Cl)ccc2c(=O)c3cccc(CC(=O)O)c3oc12	> 100 µM	> 100 µM	> 100 µM	> 100 µM	> 100 µM	> 100 µM	> 100 µM	> 100 µM	> 100 µM	> 100 µM	> 100 µM	> 100 µM
COc1ccc(N2C(=O)C3c4[nH]c5ccc([N+](=O)[O-])cc5c4C4CCC(C(C)(C)C)CC4C3C2=O)cc1 (stereo not given)	76.9 µM	8.56 µM	> 100 µM	> 100 µM	> 100 µM	33.5 µM	45.7 µM	72.6 µM	> 100 µM	> 100 µM	> 100 µM	7.56 µM
C=CC(=O)c1ccc2c(c1)OCCOCCOCCOCCOCCO2	52.8 µM	> 100 µM	31.1 µM	57.9 µM	> 100 µM	> 100 µM	33.5 µM	> 100 µM	> 79.7 µM	> 100 µM	> 100 µM	> 100 µM
Cc1ccc(-c2cc(N)n(-c3nc4c([nH]3)c(=O)n(C)c(=O)n4C)n2)cc1	27.2 µM	> 100 µM	26.4 µM	21.6 µM	> 100 µM	> 100 µM	32.2 µM	22.8 µM	30.8 µM	20.4 µM	> 100 µM	21 µM
Clc1nc(Cl)nc(NC23CC4CC(CC(C4)C2)C3)n1	35.2 µM	47.7 µM	32.6 µM	37.4 µM	38.5 µM	16.5 µM	35.5 µM	44.2 µM	> 41.8 µM	31.3 µM	41.2 µM	> 58.3 µM
